Laboratory results reported in patent US4569907A, “Thiopeptolide substrates for vertebrate collagenase” (Monsanto Company, priority 1984, dated 1986).
Non-standard residues stand in square brackets, D forms with d. Residues, ends and D or L forms follow the SMILES beside them. *: point of attachment. Dnp = O=[N+]([O-])c1ccc(*)c([N+](=O)[O-])c1

What was measured:
Format in all cases: biochemical
collagenase = molecular target: T1, collagenase (Homo sapiens, UniProt P03956); assay: HPLC assay of substrate hydrolysis by collagenase (comparison substrates without chromophores); settings: Table I Comparison of Substrate; assayed by HPLC
T1 construct: endogenous in cells; host or cells: normal human skin fibroblasts (culture media)
T1 sequence (P03956 100-469): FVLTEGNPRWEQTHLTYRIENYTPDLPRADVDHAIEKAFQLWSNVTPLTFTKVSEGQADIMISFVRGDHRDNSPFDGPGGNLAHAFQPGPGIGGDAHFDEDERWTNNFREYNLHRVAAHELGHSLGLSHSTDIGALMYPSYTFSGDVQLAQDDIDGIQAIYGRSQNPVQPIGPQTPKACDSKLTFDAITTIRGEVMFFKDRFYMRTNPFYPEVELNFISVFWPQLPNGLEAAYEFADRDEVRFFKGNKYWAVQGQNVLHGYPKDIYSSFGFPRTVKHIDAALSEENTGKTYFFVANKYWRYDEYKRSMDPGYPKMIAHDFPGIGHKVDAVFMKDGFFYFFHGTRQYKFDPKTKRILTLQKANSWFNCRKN
Procedure: (§1) The following Table I sets forth the relative rates of hydrolysis in the above spectrophotometric assay using ther above thiopeptolides as substrates in comparison to the rates of hydrolysis assayed by High Performance Liquid Chromatography (HPLC) of two commercially available substrates for collagenase and two other substrates described in copending application Ser. No. 450,318, cited hereinbefore.

[1] = molecular target: T2, Collagenase from culture media of normal human skin fibroblasts (Homo sapiens, UniProt P03956); assay: Spectrophotometric assay for collagenase: hydrolysis of thiopeptolide substrates with 4,4'-dithiodipyridine or Ellman's reagent; settings: for Relative Rate (of hydrolysis): Table I Comparison of Substrate, spectrophotometric assay, pH 6.5-7.0, initial rates
T2 construct: endogenous in cells; host or cells: normal human skin fibroblasts (culture media)
T2 sequence (P03956 100-469): T1 sequence (P03956 100-469)
Procedure: Collagenase was prepared from culture media of normal human skin fibroblasts substantially according to the procedure of Stricklin et al., Biochem. 16 1607 (1977). The enzyme (23 μg/ml in 0.5 M tris buffer [tris(hydroxymethyl) amino methane], 0.01 M CaCl2, pH 7.5) was activated by incubating 10 μl samples with one μl of trypsin (10 mg/ml in 1 mM HCl) for twenty minutes at room temperature followed by addition of 20 μl of soybean trypsin inhibitor (5 mg/ml in 0.05 M tris buffer, 0.01 M CaCl2, pH 7.5).
The activated enzyme was diluted 100 to 2000 fold for use with each of the following substrate thiopeptolides:
(§2) The spectrophotometric assay was carried out at substrate concentrations of from 0.01 mM to 5 mM in 0.05 M HEPES buffer (N-2-hydroxyethylpiperizine-N'-2-ethanesulfonic acid) with 0.01 M CaCl2 at a pH of 6.5-7.0 and containing 0.5 mM to 1.0 mM 4,4'-dithiodipyridine (or Ellman's Reagent). The total reaction volume was 250 μl including 10 to 100 μl of the diluted activated enzyme. The reaction solutions were placed in 10 mm pathlength, self-masking microcuvettes and the hydrolysis followed using a Gilford model 250 spectrophotometer at 324 λ(410 λ for Ellman's Reagent) and equipped with a Gilford model 6051 recorder. The initial rates were limited to the first 5% of reaction and were corrected for non-enzymatic hydrolysis, which never exceeded 25% of the total reaction at pH 6.5-7.0. The 4,4'dithiodipyridine (or Ellman's Reagent) at 0.5 mM was in large excess under the initial rate assay conditions and was not rate limiting.
as §1

Carboxypeptidase Y = molecular target: T3, Carboxypeptidase Y (Saccharomyces cerevisiae, UniProt P00729); assay: Enzyme selectivity for thiopeptolide, spectrophotometric hydrolysis; settings: Table II Enzyme Selectivity
T3 sequence (P00729 112-532): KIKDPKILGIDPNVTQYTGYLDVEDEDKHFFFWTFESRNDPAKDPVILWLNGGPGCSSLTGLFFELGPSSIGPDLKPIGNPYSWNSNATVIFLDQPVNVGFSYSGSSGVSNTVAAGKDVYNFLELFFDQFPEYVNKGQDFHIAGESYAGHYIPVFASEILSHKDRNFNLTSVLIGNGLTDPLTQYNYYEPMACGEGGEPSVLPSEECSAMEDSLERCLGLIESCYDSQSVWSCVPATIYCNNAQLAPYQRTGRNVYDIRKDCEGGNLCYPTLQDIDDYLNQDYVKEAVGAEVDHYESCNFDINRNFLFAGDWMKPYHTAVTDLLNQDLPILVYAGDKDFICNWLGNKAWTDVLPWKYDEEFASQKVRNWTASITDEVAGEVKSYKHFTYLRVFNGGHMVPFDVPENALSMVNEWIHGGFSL
Procedure: as §2
(§3) The ability of five proteolytic enzymes other than collagenase to cleave the synthetic substrate Ac-Pro-Leu-Gly-S-Leu-Leu-Gly-OC2 H5 was tested by hydrolysis and following spectrophotometrically as in Example 14. The following Table II sets forth the relative selectivity of these enzymes in comparison to vertebrate collagenase.

Elastase = assay: as above; settings: Table II Enzyme Selectivity
Procedure: as §2, §3

Kallikrein = assay: as above; settings: Table II Enzyme Selectivity
Procedure: as §2, §3

Trypsin = molecular target: T4, Trypsin (Bos taurus, UniProt P00760); assay: as above; settings: Table II Enzyme Selectivity
T4 sequence (P00760 24-246): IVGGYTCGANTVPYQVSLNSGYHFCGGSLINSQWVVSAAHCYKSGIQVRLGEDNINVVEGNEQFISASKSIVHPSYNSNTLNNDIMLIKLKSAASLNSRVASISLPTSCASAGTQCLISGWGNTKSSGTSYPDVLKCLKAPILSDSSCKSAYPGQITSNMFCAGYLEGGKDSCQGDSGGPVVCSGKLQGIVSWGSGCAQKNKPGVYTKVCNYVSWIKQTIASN
Procedure: as §2, §3

α-Chymotrypsin = α-Chymotrypsin (Bos taurus, UniProt P00766); assay: as above; settings: Table II Enzyme Selectivity
Procedure: as §2, §3

vertebrate collagenase = molecular target: T5, vertebrate collagenase (Homo sapiens, UniProt P03956); assay: Inhibition of vertebrate collagenase (I50, median inhibitory concentration)
T5 sequence (P03956 100-469): T1 sequence (P03956 100-469)

| Relative Rate (of hydrolysis) [1] | Compound | Relative Rate (of hydrolysis) (collagenase) | further results |
| --- | --- | --- | --- |
| 2800 | CCOC(=O)CNC(=O)[C@H](Cc1ccccc1)NC(=O)[C@H](CC(C)C)SC(=O)CNC(=O)[C@H](C)NC(=O)[C@@H]1CCCN1C(C)=O [Ac-Pro-Ala-Gly-S-Leu-Phe-Gly-OC2 H5] |  |  |
| 8800 | CCOC(=O)CNC(=O)[C@H](CC(C)C)NC(=O)[C@H](CC(C)C)SC(=O)CNC(=O)[C@H](CC(C)C)NC(=O)[C@@H]1CCCN1C(C)=O [Ac-Pro-Leu-Gly-S-Leu-Leu-Gly-OC2 H5] |  | Relative Rate ([1]; Table II Enzyme Selectivity, Vertebrate Collagenase, same as in Example 14): 260; Relative Rate (Carboxypeptidase Y): 0.03; Relative Rate (Elastase): 12; Relative Rate (Kallikrein): 4.3; Relative Rate (Trypsin): 0.07; Relative Rate (α-Chymotrypsin): 2.0 |
| 950 | CCOC(=O)CNC(=O)[C@H](C)NC(=O)[C@H](CC(C)C)SC(=O)CNC(=O)[C@H](C)NC(=O)[C@@H]1CCCN1C(C)=O [Ac-Pro-Ala-Gly-S-Leu-Ala-Gly-OC2 H5] |  |  |

Further lines, the compound ahead of its results:

| Compound | Relative Rate (of hydrolysis) [1] | Relative Rate (of hydrolysis) (collagenase) | further results |
| --- | --- | --- | --- |
| CCOC(=O)CNC(=O)[C@H](C)NC(=O)[C@H](CC(C)C)NC(=O)CNC(=O)[C@H](CC(C)C)NC(=O)[C@@H]1CCCN1C(C)=O [Ac--Pro--Leu--Gly--Leu--Ala--Gly--OC2 H5] (Ac-PLGLAG-OEt) |  | 110 |  |
| CCOC(=O)CNC(=O)[C@H](CC(C)C)NC(=O)[C@H](CC(C)C)NC(=O)CNC(=O)[C@H](CC(C)C)NC(=O)[C@@H]1CCCN1C(C)=O [Ac--Pro--Leu--Gly--Leu--Leu--Gly--OC2 H5] (Ac-PLGLLG-OEt) |  | 250 |  |
| DNP-Pro-Leu-Gly-Ile-Ala-Gly-Arg-NH2 (Dnp-PLGIAGR-NH2; SMILES CC[C@H](C)[C@H](NC(=O)CNC(=O)[C@H](CC(C)C)NC(=O)[C@@H]1CCCN1c1ccc([N+](=O)[O-])cc1[N+](=O)[O-])C(=O)N[C@@H](C)C(=O)NCC(=O)N[C@@H](CCCNC(=N)N)C(N)=O) [commercially available synthetic collagenase substrate, Peninsula Laboratories; DNP=Dinitrophenyl] |  | 25 |  |
| CCOC(=O)CNC(=O)[C@H](CC(C)C)NC(=O)[C@@H](S)CC(C)C [HS-Leu-Leu-Gly-OC2 H5] |  |  | IC50 (vertebrate collagenase): 1 µM |
| CCOC(=O)CNC(=O)[C@H](Cc1ccccc1)NC(=O)[C@H](CC(C)C)SC(=O)CNC(=O)[C@H](CC(C)C)NC(=O)[C@@H]1CCCN1C(C)=O [Ac-Pro-Leu-Gly-S-Leu-Phe-Gly-OC2 H5] | 5900 |  |  |
| DNP-Pro-Gln-Gly-Ile-Ala-Gly-Gln-D-Arg-OH (Dnp-PQGIAGQ[dR]-OH; SMILES CC[C@H](C)[C@H](NC(=O)CNC(=O)[C@H](CCC(N)=O)NC(=O)[C@@H]1CCCN1c1ccc([N+](=O)[O-])cc1[N+](=O)[O-])C(=O)N[C@@H](C)C(=O)NCC(=O)N[C@@H](CCC(N)=O)C(=O)N[C@H](CCCNC(=N)N)C(=O)O) [commercially available synthetic collagenase substrate, Peninsula Laboratories; DNP=Dinitrophenyl] |  | 5 |  |
